Columns and labels:
[1] = UV light transmittance in a quartz plate (Australian Method); assay type: physicochemical; details: solution of 2.0 mg/cm^2 in a quartz plate, 320 to 360 nm
Description: In order to analyze the transmittance of UV light in the wavelength of 320 to 360 nm, solutions of 2.0 mg/cm^2 of the phenothiazines TR, TFP and FP were used in a quartz plate.
As it can be observed, in these conditions, TR, TFP and FP block the passage of almost 100% of UV light incidence (FIG. 1). This evaluation was obtained based on the Australian Method (Perassinoto, N. L., Journal In Comesto, VII Ed., 2006), which was elected the most adequate, because it considers the ε of UVA region of absorption. The other methods are based in the 320 and 360 nm absorption ratio and can generate false negative results. According to the Australian Method, it will be a good sunscreen the compound that blocks 90% of UVA light incidence. In the case of the said cation radicals of the phenothiazines of the present invention, the blockage was of 99.99%.
A solution of 2.0 mg of drug/cm^2 was submitted to an analytical assay in a quartz plate, in the wavelength range from 320 to 360 nm, in order to verify the area of UV light transmittance (FIG. 7).
This evaluation was performed based in the Australian Method (Perassinoto, N. L.; Journal In Comesto; VII edition; p. 06; 2006), which was elected the most adequate, because it considers the ε of UVA region of absorption. The other methods are based in the 360 and 320 nm absorption ratio and can generate false negative results. According to the Australian Method, it will be a good sunscreen the compound that blocks 90% of UVA light incidence.

[2] = biological target: methionine 80 of cytochrome c (Homo sapiens, UniProt P99999); test: Photooxidation of model protein cytochrome c under UV irradiation, measured by dislocation to the blue of the Soret band; assay type: biochemical; details: for initial rate of dislocation to the blue of the Soret band: pH=4.0, 120 min UV (without drug 0.42); for effect on damage to cytochrome c: stabilized cation radicals 25 μM
Sequence of methionine 80 of cytochrome c (Homo sapiens, UniProt P99999) (P99999 whole entry): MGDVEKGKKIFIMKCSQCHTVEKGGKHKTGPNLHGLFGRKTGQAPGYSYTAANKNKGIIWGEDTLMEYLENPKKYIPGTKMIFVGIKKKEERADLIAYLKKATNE
Description: (§1) It was analyzed the effect of the concentration of the phenothiazine derived compounds of the present invention TR (graph A, FIG. 2) and TFP (graph B, FIG. 2), on the photooxidation of the model protein (methionine 80 of cytochrome c), measured by the degree of deviation to the blue of the Soret band.
(§2) The white circle, in A and B, represents the damage caused to the protein after two hours of irradiation under UV light at 254 nm, at temperature of 25° C., at pH 4.
(§3) The effect of the media pH on the initial velocity of oxidation of methionine 80 of cytochrome c was analyzed at an UV irradiation of 254 nm, during 120 min, in the absence and in the presence of the stabilized cation radicals of TR, TFP and FP (FIG. 3). In the presence of the stabilized cation radicals of TR, TFP and FP, de concentration range of 5 to 2500 μM for pH 4.0 and the concentration range of 25 to 2500 μM for the pH range of 3.0 to 7.0 were used.
(§4) Samples containing cytochrome c 3 μM and TR 25 μM were irradiated at 254 nm, in phosphate buffer 5 mM, pH=4.0, at […]., in a cuvette, at 4 cm from a UV lamp of 4 W. The spectrum of cytochrome c and of phenothiazine were obtained before the irradiation (fine solid line of FIG. 4) and after 60 and 120 min of irradiation (dotted line and thick solid line, respectively, of FIG. 4). The spectrum shown in the curves corresponds to the overlapping spectrum changes of the phenothiazines detected during the same indicated time points.
(§5) The experiment described in the Example 4 was repeated for different concentrations of phenothiazines. The initial rate of dislocation to the blue of the Soret band was defined regarding the concentration of phenothiazine.
(§6) The irradiation of the cytochrome c was performed during 120 min, pH=4.0 and under UV lamp of 4 W, which led to the dislocation to the blue of the Soret band from 409 to 406 nm, with initial rate of 0.42 ms^−1 (open circle, FIG. 5).
(§7) Irradiation of the cytochrome c 3 μM was performed, for a pH variation range from 3.0 to 7.0. In this pH range, the phenothiazine remained predominately protonated due to its pKa of 8.1. […] In the said pH range, the initial rate of dislocation to the blue of the Soret band was determined, after 120 min of UV irradiation, in the presence and in the absence of TR (FIG. 6).

[3] = Absorption bands of the cationic radicals; assay type: physicochemical; details: pre-micellic aggregates and micelles
[4] = test system: methionine 80 of cytochrome c; test: Photooxidation of model protein cytochrome c under UV irradiation, measured by dislocation to the blue of the Soret band; assay type: biochemical; details: pH=4.0, 120 min UV (without drug 406 nm)
Sequence of methionine 80 of cytochrome c (P99999 whole entry): as above
Description: as §1, §2, §3, §4, §5, §6, §7

[5] = two hours UV 254 nm, 25° C., pH 4

Structure (SMILES)	blockage of the passage of UV light incidence [1] [%]	concentration up to which increasing drug exacerbated the damage (maximum damage) [2, 5] [µM]	absorption band of the cationic radical [3] [nm]	effect on rate of dislocation to the blue of the Soret band ([2]; 25 μM, pH range from 5.0 to 7.0, 120 min UV)	increase of the initial rate of dislocation to the blue ([2]; 25 μM, pH=3.0) [%]	increase of the initial rate of dislocation to the blue ([2]; 25 μM, pH=4.0) [%]	effect on dislocation rate to the blue ([2]; drug 5 μM, pH=4.0, 120 min UV)	initial rate of dislocation to the blue of the Soret band ([2]; drug 25 μM) [ms^−1]	initial rate of dislocation to the blue of the Soret band ([2]; drug 2500 μM) [ms^−1]	reduction of the initial rate of dislocation to the blue of the Soret band ([2]; high concentrations, pH=4.0)	effect on damage to cytochrome c ([2]; pH range from 5.0 to 3.0)	effect on damage to cytochrome c ([2]; pH range from 5.0 to 7.0)	effect on photooxidation damage of cytochrome c at very low concentrations [2, 5]	Soret band after irradiation ([4]; drug 25 μM) [nm]	Soret band after irradiation ([4]; drug 2500 μM) [nm]
OCCN1CCN(CCCN2c3ccccc3Sc3ccc(C(F)(F)F)cc32)CC1 [FP, 2-[4-[3-[2-(trifluoromethyl)-10H-phenothiazin-10-yl]propyl]piperazin-1-yl]ethanol]	~100	10	520												
c1ccc2c(c1)Nc1ccccc1S2 [PHT, 10H-phenothiazine]	~100														
CN1CCN(CCCN2c3ccccc3Sc3ccc(C(F)(F)F)cc32)CC1 [TFP, 10-[3-(4-methylpiperazin-1-yl)propyl]-2-(trifluoromethyl)-10H-phenothiazine]	~100		520												
CSc1ccc2c(c1)N(CCC1CCCCN1C)c1ccccc1S2 (stereo not drawn) [TR, 10-[2-(1-methyl-2-piperidyl)ethyl]-2-methylsulfanyl-phenothiazine]	~100	25	615	slight reduction	250	~50	discrete reduction	0.6	0.23	around 50%	progressively increased the damage	slightly protected	slight protection	405	407

Source: US20110223221A1, “STABILIZATION PROCESSES OF CATION RADICALS OF PHENOTHIAZINIC COMPOUNDS, COSMECEUTICAL FORMULATIONS AND METHODS FOR SKIN DISEASES AND DISTURBANCES PREVENTION” (priority 2008, published 2011)
